From US20240200005A1, “METHOD FOR DEVELOPING AND/OR REPROGRAMMING PLANT CELLULAR OBJECTS” (SCREENSYS GMBH, priority 2021, published 2024)

Tested on: microspores of Brassica napus
Test: Dose-response of TSA trigger on growth/reprogramming of microspores in microfluidic compartments (image-based size analysis)
Assay type: cell-based
Conditions: for percentage of total microspores larger than 45 μm (multicellular stage): after 3 days
From the text: For the cultivation of the microspores, the desired compartment sequences were generated by application of the system as shown in FIG. 1. The core of the system 2 was a five-channel precision syringe pump 11 (NEMESYS Cetoni GmbH, Germany) which can feed up to five fluids 6a-6e carried in glass syringes 20 (SETonic GmbH, Germany). One channel was used for the delivery of perfluoro-methyldecalin (PP9) as carrier fluid 6/6a, which is immiscible with the other fluids and thus separates the individual aqueous compartments 4 from one another inside the generated compartment 4 sequence. Another channel was used for 1×NLN13 (recipe below) medium 6b to dilute the medium with the microspores 14 and adjust the total volume of the compartments 4, and thus the concentration of the plant cellular objects 14 and the other substances, during formation. Two different trigger solutions 6c, 6d were used in channels three and four. Channel five was used for dosing the cell suspension, i.e. the medium with the plant cellular objects 14, itself. A cell container vial 12 was employed to feed the microspores 14 into the compartment generator 10. For this, a small conical glass vial 12 with a capacity of about 2 ml was used (See FIG. 1). The vial 12 was filled with the microspore suspension, i.e. medium with plant cellular objects 14, and closed airtight and free of air bubbles. The initial microspore density in the vial 12 was about 700.000 microspores/ml.
By syringe pump-controlled addition of medium 6e into the container 12 the suspended microspores 14 were fed through the container outlet conduit 16, a 0.2 mm ID FEP tube, into the compartment generator 10. ID stands for inner diameter. Instead of medium 6e it is also contemplated to add carrier fluid 6 to the container 12 with the suspended microspores. The individual syringes 20 were connected with the compartment generator 10 via respective conduits 17. Compartments 4 of about 120 nL volume each were formed and forwarded in a 0.5 mm ID PTFE tube as the microfluidic conduit 8 for incubation. A detailed description of the used compartment generator 10 can be found in “Cao J, Richter F, Kastl M, Erdmann J, Burgold C, Dittrich D, Schneider S, Köhler J M, Groß GA (2020) Droplet-Based Screening for the Investigation of Microbial Nonlinear Dose-Response Characteristics System, Background and Examples. Micromachines. 10.3390/mi1106057”, which is incorporated herein in its entirety by reference. For sufficient diffusive aeration during long-time incubation times, PTFE tubes with low wall thickness were used (inner diameter: 0.5 mm, outer diameter: 1.0 mm). Typical flow rate conditions of about 30 μl/min for the aqueous phases, i.e. the sample fluid, i.e. the medium 6b, the medium with the plant cellular objects, and the trigger solutions 6c, 6d, and about 100 μl/min for the embedding phase, i.e. the carrier fluid 6a, were used. […] However, other tube materials and dimensions may be used.
For a dose-response experiment the Trichostatin A (TSA) was chosen as a trigger. The stimulating effect of TSA on the germination of the microspores 14 was investigated in a concentration range from 0.01 μM up to 5 μM. Therefore, TSA stock solutions of 0.2 μM TSA 6c and 10 μM TSA 6d were used in the syringes 20 for triggers 1 and 2. The application of an appropriate flow rate program yielded the compartment 4 sequence with the desired concentrations of TSA in the compartments 4, as shown in FIG. 2. The resulting compartments 4 were composed of 50% volume microspore suspension, 50%-0% dilution medium 6b and 0-50% of the trigger solution 6c, 6d. Depending on the intended concentration of TSA in the generated compartments 4, either 0.2 μM TSA solution 6c or 10 μM TSA solution 6d was added to the generated compartments 4. The flow rate for the carrier medium 6e, here PP9, was kept constant at 50 μl/min. […]

Question: CC(/C=C/C(=O)NO)=C\[C@@H](C)C(=O)c1ccc(N(C)C)cc1 [TSA, Trichostatin A] was tested. Which “percentage of microspores larger than 35 μm” value (0.01 μM TSA, after 3 days incubation at 32° C.) did it give?
Answer: The value was “about 3%”.

Question: What about the “change of percentage of microspores larger than 35 μm” value (0.01 μM TSA, after 6 days versus 3 days) of the same compound?
Answer: Its value is “increased only marginally”.

Question: And the “percentage of total microspores larger than 45 μm (multicellular stage)” value (from here on “percentage … (multicellular stage)”) (0.05 μM TSA)?
Answer: Its value is “about 1%”.

Question: What about the “percentage of total microspores with a diameter of at least 35 μm” value (0.05 μM TSA, after 6 days) of the same compound?
Answer: Its value is “about 8%”.

Question: What about the “percentage of very large microspores (>45 μm)” value (“percentage … (>45 μm)” for short) (0.05 μM TSA, after 6 days) of the same compound?
Answer: The value was “about 2%”.

Question: And the “percentage … (multicellular stage)” value (0.1 μM TSA)?
Answer: Its value is “about 1%”.

Question: And the “percentage of microspores larger than 35 μm” value (0.1 μM TSA, after 3 days incubation at 32° C.)?
Answer: The value was ~9%.

Question: What about the “percentage of microspores larger than 35 μm (total column)” value (0.1 μM TSA, after 6 days) of the same compound?
Answer: The value was 11.4%.

Question: What about the “proportion of microspores larger than 45 μm” value (0.1 μM TSA, after 6 days) of the same compound?
Answer: The value was 4.4%.

Question: What about the “percentage … (multicellular stage)” value (0.35 μM TSA) of the same compound?
Answer: Its value is “about 1%”.

Question: And the “percentage of microspores larger than 35 μm” value (0.35 μM TSA, after 3 days incubation at 32° C.)?
Answer: Its value is 8%.

Question: And the “percentage of microspores larger than 35 μm” value (0.35 μM TSA, after 6 days)?
Answer: Its value is 11.7%.

Question: What about the “percentage … (>45 μm)” value (0.35 μM TSA, after 6 days) of the same compound?
Answer: Its value is 3.8%.

Question: What about the “percentage of microspores larger than 35 μm” value (0.5 μM TSA, after 3 days incubation at 32° C.) of the same compound?
Answer: Its value is “about 4.4%”.

Question: What about the “percentage of total microspores with a diameter of at least 35 μm” value (0.5 μM TSA, after 6 days) of the same compound?
Answer: Its value is “about 8%”.

Question: What about the “percentage … (>45 μm)” value (0.5 μM TSA, after 6 days) of the same compound?
Answer: The value was “about 2%”.

Question: What about the “percentage of microspores larger than 35 μm” value (1 μM TSA, after 3 days incubation at 32° C.) of the same compound?
Answer: The value was ~4%.

Question: What about the “green portion of column (microspores larger than 45 μm)” value (1 μM TSA, after 6 days) of the same compound?
Answer: Its value is “approximately 1.7%”.

Question: What about the “percentage of microspores larger than 35 μm (total column height)” value (1 μM TSA, after 6 days) of the same compound?
Answer: Its value is 6.4%.

Question: What about the “percentage of microspores larger than 35 μm” value (2 μM TSA, after 3 days incubation at 32° C.) of the same compound?
Answer: Its value is ~0%.

Question: What about the “percentage of microspores larger than 35 μm” value (2 μM TSA, after 6 days) of the same compound?
Answer: Its value is “about 1.3%”.

Question: And the “percentage of microspores larger than 35 μm” value (5 μM TSA, after 3 days incubation at 32° C.)?
Answer: Its value is 0%.

Question: What about the growth of microspores (5 μM TSA, after 6 days) of the same compound?
Answer: Its growth of microspores is “without any recognizable growth”.

Question: And the “percentage of microspores larger than 35 μm” value (0.05 M TSA (so in the source), after 3 days incubation at 32° C.)?
Answer: Its value is “approximately 7.6%”.

Question: And the lethal dose (microspores, no recognizable growth after 6 days)?
Answer: The lethal dose was 5 µM.
